Results: ChEMBL document CHEMBL3885881, “DrugMatrix”

Organism: Rattus norvegicus
Assay: DrugMatrix - Regimen: Daily Repeat
Format: toxicity, organism-based, Sprague-Dawley
Parameters: regimen Daily Repeat, gender Male, age 6-8 weeks
Details: in vivo, po, route oral GAVAGE, […]; for ABSOLUTE BASOPHIL / ABSOLUTE EOSINOPHIL / ABSOLUTE LYMPHOCYTE / ABSOLUTE MONOCYTE / ABSOLUTE SEGMENTED NEUTROPHIL / BASOPHIL / EOSINOPHIL / ERYTHROCYTE COUNT / HEMATOCRIT / HEMOGLOBIN / LEUKOCYTE COUNT / LYMPHOCYTE / MEAN CORPUSCULAR HEMOGLOBIN / MEAN CORPUSCULAR HEMOGLOBIN CONCENTRATION / MEAN CORPUSCULAR VOLUME / MONOCYTE / NEUTROPHIL / NUCLEATED RED BLOOD CELLS / PLATELET COUNT: tissue Blood; for ALANINE AMINOTRANSFERASE / ALBUMIN / ALKALINE PHOSPHATASE / ASPARTATE AMINOTRANSFERASE / BLOOD UREA NITROGEN / CARBON DIOXIDE / CHLORIDE / CHOLESTEROL / CREATININE / GLUCOSE / LACTATE DEHYDROGENASE / LIPASE / PHOSPHORUS / POTASSIUM / SODIUM / TOTAL BILIRUBIN / TOTAL PROTEIN / URIC ACID: tissue Plasma
[1] = 250 mg/kg, 120 h, dose level Low, time 5 day
[2] = 500 mg/kg, 72 h, dose level High, time 3 day
[3] = 500 mg/kg, 120 h, dose level High, time 5 day

## CC(C)Cc1ccc(CC(=O)O)cc1 [IBUFENAC]
[1]
  ABSOLUTE BASOPHIL: 0 CELLS/uL
  ABSOLUTE EOSINOPHIL: 236.67 CELLS/uL
  ABSOLUTE LYMPHOCYTE: 15018.67 CELLS/uL
  ABSOLUTE MONOCYTE: 455.33 CELLS/uL
  ABSOLUTE SEGMENTED NEUTROPHIL: 1489.33 CELLS/uL
  BASOPHIL: 0%
  EOSINOPHIL: 1.33%
  ERYTHROCYTE COUNT: 5.48 x10E6/uL
  HEMATOCRIT: 33.63%
  HEMOGLOBIN: 12.33 G/DL
  LEUKOCYTE COUNT: 17.2 x10E3/uL
  LYMPHOCYTE: 87.33%
  MEAN CORPUSCULAR HEMOGLOBIN: 22.5 pg
  MEAN CORPUSCULAR HEMOGLOBIN CONCENTRATION: 36.67 G/DL
  MEAN CORPUSCULAR VOLUME: 61.4 fL
  MONOCYTE: 2.67%
  NEUTROPHIL: 8.67%
  NUCLEATED RED BLOOD CELLS: 0 /100WBC
  PLATELET COUNT: 1124.33 x10E3/uL
  ALANINE AMINOTRANSFERASE: 50 u/L
  ALBUMIN: 4.2 G/DL
  ALKALINE PHOSPHATASE: 391.33 u/L
  ASPARTATE AMINOTRANSFERASE: 81 u/L
  BLOOD UREA NITROGEN: 16 mg/dL
  CARBON DIOXIDE: 28.33 mmol/L
  CHLORIDE: 100.33 MEQ/L
  CHOLESTEROL: 53.33 mg/dL
  CREATININE: 0.16 mg/dL
  GLUCOSE: 167.33 mg/dL
  LACTATE DEHYDROGENASE: 230 u/L
  LIPASE: 9 u/L
  PHOSPHORUS: 12.77 mg/dL
  POTASSIUM: 6.45 MEQ/L
  SODIUM: 142.9 MEQ/L
  TOTAL BILIRUBIN: 0.13 mg/dL
  TOTAL PROTEIN: 6 G/DL
  URIC ACID: 1.5 mg/dL
[2]
  ABSOLUTE BASOPHIL: 0 CELLS/uL
  ABSOLUTE EOSINOPHIL: 218.33 CELLS/uL
  ABSOLUTE LYMPHOCYTE: 13655.67 CELLS/uL
  ABSOLUTE MONOCYTE: 429.67 CELLS/uL
  ABSOLUTE SEGMENTED NEUTROPHIL: 2263 CELLS/uL
  BASOPHIL: 0%
  EOSINOPHIL: 1.33%
  ERYTHROCYTE COUNT: 5.57 x10E6/uL
  HEMATOCRIT: 35.13%
  HEMOGLOBIN: 12.77 G/DL
  LEUKOCYTE COUNT: 16.57 x10E3/uL
  LYMPHOCYTE: 82.67%
  MEAN CORPUSCULAR HEMOGLOBIN: 22.97 pg
  MEAN CORPUSCULAR HEMOGLOBIN CONCENTRATION: 36.33 G/DL
  MEAN CORPUSCULAR VOLUME: 63.13 fL
  MONOCYTE: 2.67%
  NEUTROPHIL: 13.33%
  NUCLEATED RED BLOOD CELLS: 0 /100WBC
  PLATELET COUNT: 1113.33 x10E3/uL
  ALANINE AMINOTRANSFERASE: 92.33 u/L
  ALBUMIN: 4.4 G/DL
  ALKALINE PHOSPHATASE: 526.33 u/L
  ASPARTATE AMINOTRANSFERASE: 107.33 u/L
  BLOOD UREA NITROGEN: 14 mg/dL
  CARBON DIOXIDE: 27.33 mmol/L
  CHLORIDE: 103.67 MEQ/L
  CHOLESTEROL: 57 mg/dL
  CREATININE: 0.24 mg/dL
  GLUCOSE: 142.67 mg/dL
  LACTATE DEHYDROGENASE: 159 u/L
  LIPASE: 9.67 u/L
  PHOSPHORUS: 12.2 mg/dL
  POTASSIUM: 7.03 MEQ/L
  SODIUM: 148.07 MEQ/L
  TOTAL BILIRUBIN: 0.2 mg/dL
  TOTAL PROTEIN: 5.93 G/DL
  URIC ACID: 1.43 mg/dL
[3]
  ABSOLUTE BASOPHIL: 0 CELLS/uL
  ABSOLUTE EOSINOPHIL: 195.6 CELLS/uL
  ABSOLUTE LYMPHOCYTE: 15442.4 CELLS/uL
  ABSOLUTE MONOCYTE: 503.4 CELLS/uL
  ABSOLUTE SEGMENTED NEUTROPHIL: 1838.6 CELLS/uL
  BASOPHIL: 0%
  EOSINOPHIL: 1%
  ERYTHROCYTE COUNT: 5.64 x10E6/uL
  HEMATOCRIT: 33.38%
  HEMOGLOBIN: 12.04 G/DL
  LEUKOCYTE COUNT: 17.98 x10E3/uL
  LYMPHOCYTE: 86.6%
  MEAN CORPUSCULAR HEMOGLOBIN: 21.36 pg
  MEAN CORPUSCULAR HEMOGLOBIN CONCENTRATION: 36.1 G/DL
  MEAN CORPUSCULAR VOLUME: 59.2 fL
  MONOCYTE: 2.8%
  NEUTROPHIL: 9.6%
  NUCLEATED RED BLOOD CELLS: 0 /100WBC
  PLATELET COUNT: 1278.6 x10E3/uL
  ALANINE AMINOTRANSFERASE: 66 u/L
  ALBUMIN: 4.06 G/DL
  ALKALINE PHOSPHATASE: 384.8 u/L
  ASPARTATE AMINOTRANSFERASE: 92.4 u/L
  BLOOD UREA NITROGEN: 12.8 mg/dL
  CARBON DIOXIDE: 25.8 mmol/L
  CHLORIDE: 102.2 MEQ/L
  CHOLESTEROL: 54.2 mg/dL
  CREATININE: 0.16 mg/dL
  GLUCOSE: 152.8 mg/dL
  LACTATE DEHYDROGENASE: 132.4 u/L
  LIPASE: 9 u/L
  PHOSPHORUS: 12.02 mg/dL
  POTASSIUM: 6.28 MEQ/L
  SODIUM: 142.86 MEQ/L
  TOTAL BILIRUBIN: 0.14 mg/dL
  TOTAL PROTEIN: 5.54 G/DL
  URIC ACID: 1.78 mg/dL
